Assay results reported in US6653338B2 (Applied Research Systems ARS Holding N.A., priority 1998, dated 2003).

Tests used:
[1] = molecular target: T1, recombinant FSH receptor stably transfected and expressed in Chinese Hamster Ovary cells (Homo sapiens, UniProt P23945); test: FSH assay: CHO luciferase FSHR (CRE-luciferase reporter, LDR curves); format: cell-based; settings: FIG. 6, from the graph; duplicate samples; luciferase luminescence in CHO FSHR cells
T1 construct: expressed in transfected cells; host or cells: Chinese Hamster Ovary (CHO) cells, stably transfected, with CRE-luciferase reporter
T1 sequence (P23945 18-695): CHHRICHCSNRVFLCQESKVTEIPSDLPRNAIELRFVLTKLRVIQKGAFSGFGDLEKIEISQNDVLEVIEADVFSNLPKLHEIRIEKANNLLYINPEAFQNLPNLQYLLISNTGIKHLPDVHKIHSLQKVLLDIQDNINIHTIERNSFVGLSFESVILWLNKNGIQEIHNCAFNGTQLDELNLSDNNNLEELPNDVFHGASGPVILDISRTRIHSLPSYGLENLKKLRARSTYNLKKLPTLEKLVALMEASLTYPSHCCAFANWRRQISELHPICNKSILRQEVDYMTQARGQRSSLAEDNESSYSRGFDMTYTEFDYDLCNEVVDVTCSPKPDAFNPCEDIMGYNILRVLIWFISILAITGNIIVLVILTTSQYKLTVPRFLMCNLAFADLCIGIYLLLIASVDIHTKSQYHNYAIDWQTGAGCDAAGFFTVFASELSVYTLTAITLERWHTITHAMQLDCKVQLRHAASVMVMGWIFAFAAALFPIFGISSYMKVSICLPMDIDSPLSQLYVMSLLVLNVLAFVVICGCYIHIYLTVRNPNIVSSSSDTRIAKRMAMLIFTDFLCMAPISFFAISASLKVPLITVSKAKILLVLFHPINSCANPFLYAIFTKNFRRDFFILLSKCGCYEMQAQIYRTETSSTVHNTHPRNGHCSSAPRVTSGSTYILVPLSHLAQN
Description: Compounds were screened for agonist activity at the FSH receptor using the recombinant FSH receptor stably transfected and expressed in Chinese Hamster Ovary cells (CHO cells) essentially as described in the work by Kelton, et al. (Molecular and Cellular Endocrinology, 1992, 89, 141-151). […] An agonist at the FSH receptor increases cAMP in the cell, which results in activation of CREB (cAMP response element binding protein). This molecule interacts with the CRE element upstream of the gene and results in increased transcription of the genes downstream of the element. The substrate for luciferase (Packard Instrument Company, Meriden, Conn., U.S.A.) was added to the cells after appropriate incubation with the compounds of the invention or FSH (used as a positive control). The amount of luciferase expressed was measured by quantitating the luminescence produced by the enzyme using a TopCount scintillation/luminescence counter running in single photon counting mode. A compound that acts as an agonist at the receptor should produce light from the treated cells in proportion to its concentration within the incubation. Luminescence should be saturable at high concentrations of the compound.
The compounds of the invention, in deepwell plates (Master plates) were loaded on the robotic deck along with the appropriate number of assay plates and daughter plates. A 10 μl aliquot from each master plate was transferred to the corresponding daughter plate and 90 μl of DME/F12 was added and mixed within each well. 20 μl was then removed from the daughter plate and dispensed into the assay plate. […] 100 μl of Luclite (prepared as described by the manufacturer) was added to each well and the plate was shaken gently for 40 s prior to placement in the Topcount plate reader. After allowing 3.5 min for the plate to dark-adapt within the machine, the amount of luminescence generated was quantitated using Single Photon Counting mode. […]

[2] = system: primary rat granulosa cells; test: primary rat granulosa cell bioassay (estradiol production by RIA); format: cell-based; settings: FIG. 7; for estradiol production versus dose: concentrations between 200 nM and 5 μM, decrease in production above this concentration; for EC50: Rattus norvegicus, estradiol in cell supernatants by RIA, read-out: EC50 of stimulated estradiol production
Description: In this in vitro assay, conversion of androstendione to estrogen by granulosa cells in the presence of FSH was measured for compounds XVI and XVII. For comparison, FSH was also tested in the assay.
Cells were plated at 5000, 8000, 10,000 and 20,000 cells/ well/ 200 μl of GAB medium on poly-D-lysine-coated 96-well tissue culture plates. Plates were incubated at 37° C. in a 5% CO2/95% air incubator for 3 days. Cultures were washed prior to stimulation with FSH or LH. 50 μl of 4 X concentrations of rhFSH, rhLH or forskolin was added to the cultures. To define the range of the dose response curve the rhFSH was diluted so that the final concentration on the cells was between 10^−7 to 10^−15 M with three doses per log at 1, 2 and 5. Forskolin was diluted so that the final concentration on the cells was 1 μM. Cells were incubated @ 37° C. in 5% CO2. Three days later, cell supernatants were collected and diluted 1:100 in GAB medium for measurement of estradiol by RIA. The RIA was performed according to manufacturer's directions except that an estradiol standard was prepared in absolute ethanol at 100 ng/mL and then further diluted in GAB medium, instead of kit buffer. The concentration of hormone was plotted on the X-axis against the amount of estradiol produced by the cells on the Y-axis using Origin graphics software.
Results of the assay using media only are also shown.

| EC50 [1] [µM] | EC50 [2] [µM] | SMILES | estradiol production versus dose [2] |
| --- | --- | --- | --- |
| 1.12 |  | CCCCCc1ccc(C(=O)N2CC(O)CC2C(=O)Nc2ccc3c(c2)c2ccccc2n3CC)c(=O)o1 (stereo not shown) [compound XIX, 1-[(2-Oxo-6-pentyl-2H-pyran)-3-carbonyl]-4-hydroxypyrrolidine2-carboxylic acid-3-(9-ethylcarbazolyl)amide] |  |
| 0.0388 | 1.4 | CCCCCc1ccc(C(=O)N2CCCC2C(=O)Nc2ccc3c(c2)c2ccccc2n3CC)c(=O)o1 (stereo not shown) [compound XVI, 1-[(2-Oxo-6-pentyl-2H-pyran)-3-carbonyl]pyrrolidine-2-carboxylic acid-3-(9-ethylcarbazolyl)amide] | increasing estradiol production with increasing dose |
| 0.0039 | 1.2 | CCCCCc1ccc(C(=O)N2CCCCC2C(=O)Nc2ccc3c(c2)c2ccccc2n3CC)c(=O)o1 (stereo not shown) [compound XVII, 1-[(2-Oxo-6-pentyl-2H-pyran)-3-carbonyl]piperidine-2-carboxylic acid-3-(9-ethylcarbazolyl)amide] | increasing estradiol production with increasing dose |
